Experimental findings from ChEMBL document CHEMBL1133097, “N-Terminal dipeptides of D(-)-penicillamine as sequestration agents for acetaldehyde” (2000) are described below.

The nature of experiment [1]: Percent inhibition in hepatocyte culture system at 1/20 molar concentration of ethanol and lowered concentration of ethanol-derived AcH. It counts as functional, Rattus norvegicus.
Experiment [2] is described as follows: Percent inhibition in hepatocyte culture system in the presence of cyanamide at 1/20 molar concentration of ethanol and lowered concentration of ethanol-derived AcH. It counts as functional, Rattus norvegicus.

Usually Inhibition stands for the percentage by which the read-out fell short of the control. As to `C[C@H](NC(=O)[C@H](N)C(C)(C)S)C(=O)O.Cl`, the Inhibition in experiment [1] is listed as 84%.
`CC(C)(S)[C@@H](N)C(=O)NCC(=O)O.Cl`: the Inhibition was 79% in experiment [1] and 33% in experiment [2].
Consider `CC(C)(NC(=O)[C@H](N)C(C)(C)S)C(=O)O.Cl`, for which the Inhibition in experiment [2] was determined as 37%.
